Assay results as given in patent publication US20240208939A1, “TREATMENT OF AUTOIMMUNE AND INFLAMMATORY DISORDERS WITH INHIBITORS OF BET FAMILY BDII BROMODOMAIN” (POSEIDON INNOVATION 1, INC., priority 2022, published 2024).

What was measured:
BRD4 BD2 = molecular target: T1, BRD4 BD2 (Homo sapiens, UniProt O60885); test: Target Engagement Intracellular BET BRD Assay (NanoBRET); type: cell-based; conditions: read-out: BRD4 BD2 TE IC50
T1 construct: BD2 TE; expressed in transfected cells
Protocol: 3× Complete Substrate plus Inhibitor Solution in Assay Medium (Opti-MEM® I Reduced Serum Medium, no phenol red, and no serum) was prepared just before measuring BRET. This solution consisted of a 1:166 dilution of NanoBRET™ Nano-Glo® Substrate plus a 1:500 dilution of Extracellular NanoLuc® Inhibitor in Assay Medium. For a 96-well plate, 30 μl of NanoBRET™ Nano-Glo® Substrate, 10 μl of Extracellular NanoLuc® Inhibitor and 4,960 μl of Assay Medium were mixed to produce 5 ml of 3× Complete Substrate plus Inhibitor Solution, followed with gently mixing by inversion 5-10 times in a conical tube. (The final concentration of Extracellular NanoLuc® Inhibitor in the 3× solution was 60 μM, for a working concentration of 20 μM. Use 3× Complete Substrate plus Inhibitor Solution within 2 hours. Discard any remaining solution).
50 μl of 3× Complete Substrate plus Inhibitor Solution were added to each well of the 96-well plate, followed by incubation for 2-3 minutes at room temperature. Donor emission wavelength (e.g., 450 nm) and acceptor emission wavelength (e.g., 610 nm) were measured by using the GloMax® Discover System or other NanoBRET™ Assay-compatible luminometer (it is recommended measuring BRET within 10 minutes after adding NanoBRET™ Nano-Glo™ Substrate plus Extracellular NanoLuc® Inhibitor Solution. However, BRET can be measured for up to 2 hours, but there will be some loss of luminescence signal).
To generate raw BRET ratio values, the acceptor emission value (e.g., 610 nm) was divided by the donor emission value (e.g., 450 nm) for each sample [to correct for background, the BRET ratio was substracted in the absence of tracer (average of no-tracer control samples) from the BRET ratio of each sample]. Raw BRET units were converted to milliBRET units (mBU) by multiplying each raw BRET value by 1,000. NanoBRET™ ratio equation, including optional background correction is shown below:
BRET Ratio=[(Acceptorsample÷Donorsample)−(Acceptorno-tracer control÷Donorno-tracer control)]×1,000.

MCP-1 = test: PBMC MCP-1 HTRF Assay; type: cell-based; conditions: LPS 200 ng/mL, 24 hours
Protocol: The cryopreserved PBMC cells were thawed in a 37° C. water bath immediately after taking out from liquid nitrogen storage. A sterile pipette was used to transfer the content to sterile […] centrifuge tube containing […] of complete growth medium (Gibico 1640) and centrifuge at 300×g for 10 min. Supernatant was discarded, and cell pellet was resuspended in 10 mL of complete growth media in a sterile 15 mL tube. The cells were rested for 1 h at 37° C. (1×10^6 cells/mL). The cells were spinned down at 300×g for 10 minutes after 1 h. Supernatant was discard, and cell pellet was resuspended in complete growth medium, the cells number and viability were measured by AO/PI staining. In a 384-well white plate, PBMCs at 25 k cells/well (15 μl per well) were seeded with Gibico 1640 medium. The compound stock was serial diluted into […] by 3-fold dilution. 20 nL DMSO, 20 nL test compounds DMSO stock (serial diluted) were transferred in assay plate by using ECHO550, incubate for 30 min at 37° C., 5% CO2. LPS was diluted by Gibico 1640 medium.add 5 μl per well. The final concentration (200 ng/mL) was incubated for 24 hours at 37° C. with 5% CO2.
For MCP-1 HTRF, 2.5 μl/well MCP-1 donor antibody and 2.5 μl/well MCP-1 acceptor antibody were added into 384 well plate, following by centrifuging at 190×g for 1 min and incubating at room temperature for 2 h. The plate was read on the Envision.

Row | Compound | IC50 (BRD4 BD2) [nM] | IC50 (MCP-1) [nM]
1 | COc1ncc(-c2nc(C)cc(-c3ccc(-n4ccn(C)c4=O)c(Cl)c3)c2O)cc1N1CCN(C(C)(C)C)CC1 [Example I-3, 1-(4-(5′-(4-(tert-butyl)piperazin-1-yl)-3-hydroxy-6′-methoxy-6-methyl-[2,3′-bipyridin]-4-yl)-2-chlorophenyl)-3-methyl-1,3-dihydro-2H-imidazol-2-one] | 4.5 | 4.4
2 | Cc1cc(-c2ccc(-n3ccn(C)c3=O)c(Cl)c2)c(O)c(-c2cc(Cl)cc(N3CCN(C(C)(C)C)CC3)c2)n1 [Example I-6, 1-(4-(2-(3-(4-(tert-butyl)piperazin-1-yl)-5-chlorophenyl)-3-hydroxy-6-methylpyridin-4-yl)-2-chlorophenyl)-3-methyl-1,3-dihydro-2H-imidazol-2-one] | 9.11 | 2.25
3 | Cc1cc(-c2ccc(-n3ccn(C)c3=O)c(Cl)c2)c(O)c(-c2ccc(F)c(N3CCN(C(C)(C)C)CC3)c2)n1 [Example I-7, 1-(4-(2-(3-(4-(tert-butyl)piperazin-1-yl)-4-fluorophenyl)-3-hydroxy-6-methylpyridin-4-yl)-2-chlorophenyl)-3-methyl-1,3-dihydro-2H-imidazol-2-one] | 11 | 1.79
4 | Cc1cc(-c2ccc(-n3ccn(C)c3=O)c(F)c2)c(O)c(-c2cccc(N3CCN(C(C)(C)C)CC3)c2)n1 [Example I-8, 1-(4-(2-(3-(4-(tert-butyl)piperazin-1-yl)phenyl)-3-hydroxy-6-methylpyridin-4-yl)-2-fluorophenyl)-3-methyl-1,3-dihydro-2H-imidazol-2-one] | 13 | 5.39
5 | Cc1cc(-c2ccc(-n3ccn(C)c3=O)c(Cl)c2)c(O)c(-c2cc(N3CCN(C(C)(C)C)CC3)n(C)c(=O)c2)n1 [Example I-9, 6′-(4-(tert-butyl)piperazin-1-yl)-4-(3-chloro-4-(3-methyl-2-oxo-2,3-dihydro-1H-imidazol-1-yl)phenyl)-3-hydroxy-1′,6-dimethyl-[2,4′-bipyridin]-2′(1′H)-one] | 87.2 | 66.3
6 | Cc1cc(-c2ccc(-n3ccn(C)c3=O)c(Cl)c2)c(O)c(-c2ccc(Cl)c(N3CCN(C(C)(C)C)CC3)c2)n1 [Example I-11, 1-(4-(2-(3-(4-(tert-butyl)piperazin-1-yl)-4-chlorophenyl)-3-hydroxy-6-methylpyridin-4-yl)-2-chlorophenyl)-3-methyl-1,3-dihydro-2H-imidazol-2-one] | 4.22 | 6.34

Further lines, results first:

Row | IC50 (BRD4 BD2) [nM] | IC50 (MCP-1) [nM] | Compound
7 | 0.152 | 1.22 | Cc1cc(-c2ccc(-n3ccn(C)c3=O)c(Cl)c2)c(O)c(-c2cccc(N3CCN(C(C)(C)C)CC3)c2)n1 [Example I-2, 1-(4-(2-(3-(4-(tert-butyl)piperazin-1-yl)phenyl)-3-hydroxy-6-methylpyridin-4-yl)-2-chlorophenyl)-3-methyl-1,3-dihydro-2H-imidazol-2-one]
8 | 10.2 | 1.72 | [2H]C([2H])([2H])n1ccn(-c2ccc(-c3cc(C)nc(-c4cccc(N5CCN(C(C)(C)C)CC5)c4)c3O)cc2Cl)c1=O [Example I-4, 1-(4-(2-(3-(4-(tert-butyl)piperazin-1-yl)phenyl)-3-hydroxy-6-methylpyridin-4-yl)-2-chlorophenyl)-3-(methyl-d3)-1,3-dihydro-2H-imidazol-2-one]
9 | 0.473 | 0.583 | Cc1cc(-c2ccc(-n3ccn(C)c3=O)c(Cl)c2)c(N)c(-c2cccc(N3CCN(C(C)(C)C)CC3)c2)n1 [Example I-5, 1-(4-(3-amino-2-(3-(4-(tert-butyl)piperazin-1-yl)phenyl)-6-methylpyridin-4-yl)-2-chlorophenyl)-3-methyl-1,3-dihydro-2H-imidazol-2-one]
10 | 7.59 | 1.46 | Cc1cc(-c2ccc(-n3ccn(C)c3=O)c(C)c2)c(O)c(-c2cccc(N3CCN(C(C)(C)C)CC3)c2)n1 [Example I-10, 1-(4-(2-(3-(4-(tert-butyl)piperazin-1-yl)phenyl)-3-hydroxy-6-methylpyridin-4-yl)-2-methylphenyl)-3-methyl-1,3-dihydro-2H-imidazol-2-one]
